{
  "source": "patent US20100137239A1",
  "about": "“GEMCITABINE COMBINATION THERAPY” (GLOUCESTER PHARMACEUTICALS, priority 2006, published 2010)",
  "key": {"[1]": {"assay": "PANC-1 study: animal weight and drug toxicity", "from_the_text": "Model Information—Female nude mice (nu/nu) between 5 and 6 weeks of age weighing approximately 20 grams were obtained from Harlan, Inc. (Madison, Wis.). PANC-1, obtained from the ATCC, is a pancreas tumor cell line originating from a person^(1-2). BxPC-3, obtained from the American Type Culture Collection (ATCC), is a pancreas tumor cell line originating from a person^(3-4). PANC-1 Study: Animals were implanted subcutaneously (SC) by trocar with fragments of PANC-1 harvested from SC growing tumors in nude mice hosts. When tumors grew to approximately 135 cubic millimeters (mm^3) in size (17 days following implantation, animals were pair-matched by tumor size into treatment and control groups; each treatment group contained nine mice. BxPC-3 Study: Animals were implanted subcutaneously (SC) by trocar with fragments of BxPC-3 harvested from SC growing tumors in nude mice hosts. When tumors grew to approximately 85 cubic millimeters (mm^3) in size (19 days following implantation), animals were pair-matched by tumor size into treatment and control groups; each treatment group contained nine mice. Animals in both studies were ear-tagged and followed individually throughout the experiment.\nStudy Design and Dosing—Initial doses were administered on Day 1 following pair-matching; both experiments were carried out as tumor growth inhibition (TGT) studies. Animals were dosed intravenously (IV) via tail vein with FK228 once every four days for three treatments (Q4Dx3) or by intraperitoneal (IP) injection with gemcitabine once every three days for four treatments (Q3Dx4), either alone or in combination, at the doses listed below (Table 1). To serve as a negative control, FK228 vehicle (2% ethanol, 8% propylene glycol, 90% 0.9% saline) was injected on a Q4Dx3 schedule.\nAnimal Weights—Individual and group mean weights ±SD and percent weight change through Day 25 (PANC-1) or Day 29 (BxPC-3) were recorded twice weekly until study completion beginning Day 1. Final group mean weights ±SD and group nadir values are reported; weight data from individual animals experiencing technical or drug-related deaths was censored from final group calculations.\nMoribundity/Mortality—Animals were observed twice weekly for general moribundity and daily for mortality. Animal deaths were assessed as drug-related or technical based on factors including gross observation and weight loss; reported animal death information includes type, number, and day of death for each group.\nStatistics—Statistical analyses were carried out between treated and control groups comparing final weight, percent weight change, and tumor growth inhibition (Appendix III). For these groups, a two-tailed One-Way Analysis of Variance (ANOVA) followed by the Dunnett multiple comparisons test was employed. All analyses are performed using GraphPad Prism® software (version 4.0). Weight and tumor data from individual animals experiencing technical or drug-related deaths was censored from analysis."}, "[2]": {"test_system": "Panc-1 human pancreas tumors", "assay": "Panc-1 mouse xenograft tumor growth (Example 1)", "assay_type": "in vivo", "conditions": "for tumor growth inhibition: Panc-1 xenograft in female nude mice, FK228 IV Q4Dx3, gemcitabine IP Q3Dx4, vs vehicle control", "method": "In this study, female nude mice were implanted subcutaneously (SC) by trocar with Panc-1 tumor fragments harvested from SC growing tumors in nude mice hosts. […] The day of treatment initiation was specified as Day 1. Vehicle control and FK228 were administered intravenously on a Q4Dx3 schedule (Days 1, 5, and 9). Gemcitabine was administered by an intraperitoneal injection on a Q3Dx4 schedule (Days 1, 4, 7, 10). Tumors were measured by Vernier calipers twice weekly."}, "[3]": {"test_system": "acetylated histone 4", "assay": "Immunoblot of acetylated histone 4 in PANC-1 xenograft tumors", "assay_type": "in vivo, human", "conditions": "FK228 5 mg/kg Q4Dx3; gemcitabine 80 mg/kg Q3Dx4; tumors at study completion; vs controls", "method": "Abstract: To examine activity and mechanism of FK228, antitumor efficacy was tested in PANC-1 pancreatic adenocarcinoma model representing transformed Ras, either as a single agent or in combination with gemcitabine. Following PANC-1 study completion, tumor and sera were obtained from: • the vehicle control; • FK228 dosed at 5 mg/kg once every four days for three treatments (Q4Dx3); • Gemcitabine at 80 mg/kg (Q3Dx4); and • the drug combination. Expression of c-Myc, acetylated histones 3 and 4, and p21^waf1 was compared between control and FK228 groups by immunoblotting and was quantified following actin normalization. Serum levels of putative tumor products b-FGF and MMP-2 were quantified by human-specific ELISA. […]\nTissue Biomarkers: Tumor levels of acetylated histone-4, histone-4, c-Myc, p21waf and β-actin were quantified by immunoblotting as described. […] The chemiluminescence signal was captured by autoradiography, quantified by densitometry and expressed as a ratio of actin in each sample lane. For each biomarker, means and standard errors were calculated in each treatment group. […]\nExpression of c-Myc, acetylated histones 3 and 4, and p21^waf1 was compared between control and FK228 groups by immunoblotting and was quantified following actin normalization. Serum levels of putative tumor products b-FGF and MMP-2 were quantified by human-specific ELISA. […]"}, "[4]": {"conditions": "FK228 2.5 mg/kg IV Q4Dx3, 2.5 mg/kg"}, "[5]": {"conditions": "FK228 5 mg/kg IV Q4Dx3, 5 mg/kg"}},
  "note": "Where “and” joins values, the source holds several entries; their conditions need not be identical. Equal values may be shown once.",
  "data": [
    {"smiles": "C/C=C1\\NC(=O)[C@H]2CSSCC/C=C/[C@H](CC(=O)N[C@H](C(C)C)C(=O)N2)OC(=O)[C@H](C(C)C)NC1=O", "note": "[FK228, romidepsin]", "values": [
      {"measurement": "FINAL WEIGHT (DAY 25) % CHANGE", "setting": "[1]; FK228 2.5 mg/kg IV Q4Dx3", "value": "+8%"},
      {"measurement": "WEIGHT NADIR % CHANGE", "setting": "[1]; FK228 2.5 mg/kg IV Q4Dx3", "value": "−9", "unit": "%"},
      {"measurement": "WEIGHT NADIR DAY", "setting": "[1]; FK228 2.5 mg/kg IV Q4Dx3", "value": 11},
      {"measurement": "DRUG DEATHS TOTAL", "setting": "[1]; [4]", "value": "0/9 and 0"},
      {"measurement": "FINAL WEIGHT (DAY 25) MEAN(G) ± SD", "setting": "[1]; [4]", "value": "21 ± 2", "unit": "G"},
      {"measurement": "FINAL WEIGHT (DAY 25) % CHANGE", "setting": "[1]; FK228 5 mg/kg IV Q4Dx3", "value": "+9%"},
      {"measurement": "WEIGHT NADIR % CHANGE", "setting": "[1]; FK228 5 mg/kg IV Q4Dx3", "value": "−12", "unit": "%"},
      {"measurement": "WEIGHT NADIR DAY", "setting": "[1]; FK228 5 mg/kg IV Q4Dx3", "value": 11},
      {"measurement": "DRUG DEATHS TOTAL", "setting": "[1]; [5]", "value": "0/9 and 0"},
      {"measurement": "FINAL WEIGHT (DAY 25) MEAN(G) ± SD", "setting": "[1]; [5]", "value": "25±2", "unit": "G"},
      {"measurement": "tumor growth inhibition", "setting": "[2]", "value": 26, "unit": "%"},
      {"measurement": "increase of acetylated histone 4", "setting": "[3]", "value": "over 2 fold"}
    ]},
    {"smiles": "Nc1ccn([C@@H]2O[C@H](CO)[C@@H](O)C2(F)F)c(=O)n1", "note": "[Gemcitabine, gemcitabine]", "values": [
      {"measurement": "DRUG DEATHS TOTAL", "setting": "[1]; Gemcitabine 40 mg/kg IP Q3Dx4", "value": "0/9 and 0"},
      {"measurement": "FINAL WEIGHT (DAY 25) % CHANGE", "setting": "[1]; Gemcitabine 40 mg/kg IP Q3Dx4", "value": "+7%"},
      {"measurement": "FINAL WEIGHT (DAY 25) MEAN(G) ± SD", "setting": "[1]; Gemcitabine 40 mg/kg IP Q3Dx4", "value": "24±1", "unit": "G"},
      {"measurement": "WEIGHT NADIR % CHANGE", "setting": "[1]; Gemcitabine 40 mg/kg IP Q3Dx4", "value": "−2", "unit": "%"},
      {"measurement": "WEIGHT NADIR DAY", "setting": "[1]; Gemcitabine 40 mg/kg IP Q3Dx4", "value": 11},
      {"measurement": "DRUG DEATHS TOTAL", "setting": "[1]; Gemcitabine 80 mg/kg IP Q3Dx4", "value": "0/9 and 0"},
      {"measurement": "FINAL WEIGHT (DAY 25) % CHANGE", "setting": "[1]; Gemcitabine 80 mg/kg IP Q3Dx4", "value": "+12%"},
      {"measurement": "FINAL WEIGHT (DAY 25) MEAN(G) ± SD", "setting": "[1]; Gemcitabine 80 mg/kg IP Q3Dx4", "value": "26±3", "unit": "G"},
      {"measurement": "WEIGHT NADIR % CHANGE", "setting": "[1]; Gemcitabine 80 mg/kg IP Q3Dx4", "value": "−3", "unit": "%"},
      {"measurement": "WEIGHT NADIR DAY", "setting": "[1]; Gemcitabine 80 mg/kg IP Q3Dx4", "value": 11},
      {"measurement": "tumor growth inhibition", "setting": "[2]", "value": 50, "unit": "%"},
      {"measurement": "animals with tumor regression", "setting": "[2]; Panc-1 xenograft, N=9 mice per group", "value": "no regression"},
      {"measurement": "increase of acetylated histone 4", "setting": "[3]", "value": "on the control level"}
    ]}
  ]
}
